Values of other authors in patent publication US11844783B2, “Formulations of bendamustine” (Eagle Pharmaceuticals, Inc., priority 2010, dated 2023).

Conditions: liquid form

## Cn1c(CCCC(=O)O)nc2cc(N(CCCl)CCCl)ccc21 [bendamustine, Bendamustine]
  stability in water: measured in hours
